From US7304168B2, “Photo-caged fluorescent molecules” (Board of Regents, University of Texas System, priority 2003, dated 2007)

How the values were obtained:
[1] = Two photon uncaging action cross section at 740 nm with Bhc-OAc as reference; assay type: physicochemical; conditions: for photolysis after 20 minutes of continuous illumination: 345 mW exiting the cuvette; for sensitivity to two photon uncaging relative to 2a: average power 590 mW exiting the cuvette
Description: To calculate δu, 6-bromo-7-hydroxycoumarin-4-ylmethyl acetate (Bhc-OAc) was used as a reference compound (Furuta, 1999; Fedoryak, 2002). The compounds tested included Compound 2a from FIG. 3 and a compound 2a′ having the structure:
Bhc-OAc, Compound 2a, and Compound 2a′ in microcuvettes were illuminated using focused infrared light ([…]) from a femtosecond-pulsed and mode locked Ti-sapphire laser. The two photon uncaging action cross section was determined using the equation (Furuta, 1999):
[formula] • where Np is the number of product molecules formed per unit time, <I0^2(t)> is the mean squared light intensity, S(r) is a unitless spatial distribution function, and the integral is over the volume of the microcuvet, and Cs is the substrate concentration. If caged compounds are photolyzed under the identical setting with the same two photon laser power, then the term <I0^2(t)>∫S^2(r)dV should be about the same for different cages. Thus, δu^a of cage “a” can be determined by comparing its rate of product formation (Np^a) with that of reference cage “b” with known δu^b according to the equation: […]
The formation of coumarins after two photon photolysis of Compound 2a and […] was quantified similarly as in the one photon uncaging experiments by measuring the fluorescence enhancement. The photolysis of Bhc-OAc was quantified by HPLC analysis as described (Furuta, 1999; Fedoryak, 2002).
Two photon photolysis was carried out using a procedure similar to the one first described by Furuta et al (Furuta, 1999). Samples in 100 mM Mops buffer (pH 7.3) were transferred to a microcuvette (Hellma 105.251-QS). The filling volume of the cuvette was […]. The laser beam from a fs-pulsed and mode-locked Ti-Sapphire laser (Mira 900-F pumped by a Verdi, Coherent, Santa Clara, Calif.) was focused into the center of the cuvette with a focusing lens (01 LPX 029/077, focal length 25 mm, Melles-Griot, Carlsbad, Calif.). After irradiation with 740 nm light, samples were collected and the formation of the products was quantified. The formation of coumarins from caged precursors 2a or 2a′ (initial concentration 10 μM) was measured by fluorescence spectroscopy. The photolysis of Bhc-OAc (initial concentration 100 μM) was followed by HPLC. Two-photon uncaging cross sections (δu) were calculated from equation (2) and the reported δu of 0.72 GM for Bhc-OAc at 345 mW laser power exiting the cuvette (Fedoryak, 2002).

[2] = 740 nm, 345 mW laser power exiting the cuvette; cited from earlier work
[3] = at 730 nm; cited from earlier work
human fibroblasts = human fibroblasts loaded with Fluo-3/AM
Description: Human fibroblasts were loaded with the calcium indicator Fluo-3/AM (Molecular Probes), and a caged and cell permeable coumarin derivative (compound 8, FIG. 6). […] Optical filters were used (coumarin excitation, 440AF21 (Omega Optical); Fluo-3 excitation, 490/20; UV uncaging 330WB80; dichroic, 61010bs; emission filter, 84101 special; all of Chroma Technology unless stated otherwise).
Fluo-3 measures cell calcium concentrations.

[4] = system: gap junction transfers in coupled human fibroblast cells; assay: Inhibition of junctional coumarin (HCCC2) transfer after localized uncaging; assay type: cell-based; conditions: human fibroblasts loaded with NPE-HCCC2-AM (1 μM); added prior to the third uncaging
Description: Coupled human fibroblast cells were loaded with NPE-HCCC2-AM (1 μM) for 40 minutes in Hanks Balanced Saline (HBS with 10 mM Hepes, 5.5 mM glucose, pH 7.3), then washed and incubated for another 15 minutes before imaging on an inverted fluorescence microscope. The time course of fluorescent intensities of HCCC2 after it was locally uncaged in the “donor” cells is shown in FIG. 10 (FHCCC2, arbitrary units, 425±5 nm excitation, 460±10 nm emission). A field diaphragm was placed in the excitation light path inside the microscope. The iris of the field diaphragm was reduced to a minimum to limit the area of UV illumination (360±20 nm) to a fraction of a cell during localized uncagings. Digital fluorescence images were taken every 15 seconds. The rates of HCCC2 diffusion are indicated under each episode of transfer. α-Glycyrrhetinic (“αG”) was added to the cells prior to the third uncaging. αG is a classical inhibitor of gap junction transfers (Rozental, et al., 2001).

In the case of CC(=O)OCc1cc(=O)oc2cc(O)c(Br)cc12 [Bhc-OAc, 6-bromo-7-hydroxycoumarin-4-ylmethyl acetate], the “photolysis after 20 minutes of continuous illumination” value [1] is given as 10.6%, the “sensitivity to two photon uncaging relative to 2a” value [1] is given as “about two times more sensitive to two photon uncaging than 2a” and the “reported δu, two photon uncaging cross section” value [2] is given as 0.72 GM.

With COC(=O)CC[C@@H](NC(=O)c1cc2ccc(OC(C)c3ccccc3[N+](=O)[O-])cc2oc1=O)C(=O)OC (stereo partly drawn) [Compound 2a′] the “photolysis after 20 minutes of continuous illumination” value [1] was 10%, the “sensitivity to two photon uncaging relative to 2a” value [1] was “about two times more sensitive to two photon uncaging than 2a” and the “δu, two photon uncaging action cross section” value ([1]; estimated against Bhc-OAc (0.72 GM)) was 0.68 GM.

For COc1ccc([N+](=O)[O-])c2c1CCN2C(=O)CC[C@H](N)C(=O)O [MNI caged glutamate], the “δu, two photon uncaging cross section” value [3] is given as 0.06 GM.

For NCCc1c[nH]cn1 [histamine], the “intracellular calcium (Fluo-3 channel)” value (human fibroblasts) was “induced intracellular calcium increase”.

With CC1(C)[C@@H](O)CC[C@]2(C)[C@H]3C(=O)C=C4[C@H]5C[C@@](C)(C(=O)O)CC[C@]5(C)CC[C@@]4(C)[C@]3(C)CC[C@@H]12 [αG, α-glycyrrhetinic acid] the “inhibition of coumarin transfer through gap junctions” value [4] was “susceptible to inhibition by αG”.
